Reference: patent publication US11774396B2, “Systems and methods for patterning and spatial electrochemical mapping of cells” (President and Fellows of Harvard College, priority 2020, dated 2023)

What was measured:
MDCK cells [1] = experiment: Wound healing assay: electrochemical patterning and impedance mapping of regrowth; type: cell-based, Canine; settings: 1 μM, over the course of 72 hours; control culture took ~3 days to fill in the wound
Source text: This example describes a combined application of both the cross-electrode impedance mapping and cell patterning is a wound healing assay.
These assays gauge cell growth rate and metabolism and can be useful for screening drugs affecting these parameters. Compared to the electrochemical patterning described herein, other tools mechanically generate a wound in a cell culture via a mechanical scratch which is both difficult to control and limiting in terms of wound pattern.
In this example, a wound is made in MDCK cells and then the growth is mapped in real-time. […] These patterns were defined by applying electrode currents of −10 nA for 40 s versus a Ag/AgCl pseudo reference electrode. The regrowth of the culture was then measured using the impedance mapping method.

MDCK cells [2] = system: MDCK cells
Source text: This example describes a method using cross-electrode impedance mapping to quantify cell adhesion.
Ethylenediaminetetraacetic acid (EDTA) is applied to the cells. EDTA is a calcium chelator that removes Ca^2+ needed for integrin proteins to maintain cell adhesion.
FIG. 6b is a data plot showing mean normalized impedances for different regions of the cell culture over time as specified in the map 601. FIG. 6cc are histograms of the normalized impedance values before, during, and after a washout of EDTA across the array.

SMILES	regrowth of the wound in the cell culture (normalized cross-electrode impedance maps) (MDCK cells [1])	time course over which the cells detach with EDTA applied (MDCK cells [2]; 5 mM EDTA application at t=~5 min) [min]	time course over which the cells re-attach after EDTA washout (MDCK cells [2]; EDTA washed out by adding normal culture media) [min]
C=C1[C@@H](C)[C@H]2[C@H](Cc3ccccc3)NC(=O)[C@]23OC(=O)/C=C/[C@H](O)CCC[C@@H](C)C/C=C/[C@H]3[C@@H]1O [cytochalasin B]	very little growth		
O=C(O)CN(CCN(CC(=O)O)CC(=O)O)CC(=O)O [EDTA, Ethylenediaminetetraacetic acid]		~50	~200
